Test results reported in the CheMixHub ionic liquid set.

Assay: xn = mol fraction of the nth substance listed
Conditions: 100 kPa

O=C(O)c1cccnc1 + CCCC[n+]1ccn(C)c1.[Br-] + O
viscosity [mPa·s]
Conditions | 293.15 K | 298.15 K | 303.15 K
x1 = 0.0002684, x2 = 0 | 1.015 | 0.903 | 0.807
x1 = 0.0002711, x2 = 0.0008999 | 1.035 | 0.92 | 0.824
x1 = 0.0002757, x2 = 0.001798 | 1.06 | 0.94 | 0.842
x1 = 0.0002802, x2 = 0.002695 | 1.071 | 1.002 | 0.906
x1 = 0.0005421, x2 = 0 | 1.018 | 0.905 | 0.809
x1 = 0.0005475, x2 = 0.0008997 | 1.039 | 0.923 | 0.827
x1 = 0.0005493, x2 = 0.001798 | 1.063 | 0.942 | 0.843
x1 = 0.0005547, x2 = 0.002694 | 1.074 | 1.004 | 0.908
x1 = 0.0008084, x2 = 0 | 1.021 | 0.908 | 0.812
x1 = 0.0008166, x2 = 0.0008994 | 1.042 | 0.925 | 0.829
x1 = 0.0008283, x2 = 0.001797 | 1.066 | 0.945 | 0.845
x1 = 0.0008364, x2 = 0.002693 | 1.077 | 1.007 | 0.91
x1 = 0.001084, x2 = 0 | 1.024 | 0.911 | 0.814
x1 = 0.001093, x2 = 0.0008992 | 1.044 | 0.927 | 0.83
x1 = 0.001104, x2 = 0.001797 | 1.069 | 0.947 | 0.848
x1 = 0.001114, x2 = 0.002693 | 1.08 | 1.009 | 0.912
x1 = 0.001351, x2 = 0 | 1.027 | 0.913 | 0.816
x1 = 0.001363, x2 = 0.000899 | 1.047 | 0.93 | 0.833
x1 = 0.001377, x2 = 0.001796 | 1.071 | 0.95 | 0.85
x1 = 0.00139, x2 = 0.002692 | 1.083 | 1.012 | 0.915
x1 = 0.001619, x2 = 0 | 1.03 | 0.916 | 0.819
x1 = 0.001635, x2 = 0.0008987 | 1.05 | 0.932 | 0.835
x1 = 0.001652, x2 = 0.001796 | 1.074 | 0.952 | 0.852
x1 = 0.001666, x2 = 0.002691 | 1.086 | 1.014 | 0.917
